US8080567B2, “EP2 receptor agonists” (Asterand UK Limited, priority 2005, dated 2011)

Assays:
human EP2 receptor = molecular target: T1, human EP2 receptor (Homo sapiens, UniProt P43116); test: Binding ability to human EP receptors, [3H]PGE2 displacement, EP2; conditions: membranes expressing human EP2 receptor; [3H]PGE2 3 nM; Cheng-Prusoff; read-out: pKi (M) EP2 (converted)
T1 construct: expressed in transfected cells; HEK-293 is named only for the cAMP assay
Experimental: (§1) Membranes were prepared from cells stably transfected with human EP receptor cDNA. In brief, cells were cultured to confluency, scraped from culture flasks, and centrifuged (800 g, 8 minutes, 4° C.). Cells were twice washed in ice cold homogenisation buffer containing 10 mM Tris-HCl, 1 mM EDTA.2Na, 250 mM sucrose, 1 mM PMSF, 0.3 mM indomethacin, pH 7.4, homogenised and re-centrifuged as before. The supernatant was stored on ice and pellets re-homogenised and re-spun. Supernatants were pooled and centrifuged at 40000 g, 10 minutes, 4° C. Resultant membrane pellets were stored at −80° C. until use.
(§2) For assay, membranes expressing human EP4, EP3, EP2 or EP1 receptors were incubated in Millipore (MHVBN45) plates containing assay buffer, radiolabelled [^3H]PGE2 and 0.1 to 10 000 nM concentrations of compounds. Incubations were performed at suitable temperatures and for suitable times to allow equilibrium to be reached. Non-specific binding was determined in the presence of 10 uM PGE2. Bound and free radiolabel was separated by vacuum manifold filtration using appropriate wash buffers, and bound radiolabel was determined by scintillation counting. Constituents of each of the buffers are included in table 1 below.
(§3) The affinity or pKi of each compound for each receptor was calculated from the concentration causing 50% radioligand displacement (IC50) using the Cheng-Prusoff equation: […]
(§4) This approach follows that set out in Kenakin, T. P., Pharmacologic analysis of drug receptor interaction. Raven Press, New York, 2nd edition.

human EP4 receptor = molecular target: T2, human EP4 receptor (Homo sapiens, UniProt P35408); test: Binding ability to human EP receptors, [3H]PGE2 displacement, EP4; conditions: membranes expressing human EP4 receptor; [3H]PGE2 1 nM; Cheng-Prusoff; read-out: pKi (M) EP4 (converted)
T2 construct: expressed in transfected cells; HEK-293 is named only for the cAMP assay
T2 sequence (P35408 whole entry): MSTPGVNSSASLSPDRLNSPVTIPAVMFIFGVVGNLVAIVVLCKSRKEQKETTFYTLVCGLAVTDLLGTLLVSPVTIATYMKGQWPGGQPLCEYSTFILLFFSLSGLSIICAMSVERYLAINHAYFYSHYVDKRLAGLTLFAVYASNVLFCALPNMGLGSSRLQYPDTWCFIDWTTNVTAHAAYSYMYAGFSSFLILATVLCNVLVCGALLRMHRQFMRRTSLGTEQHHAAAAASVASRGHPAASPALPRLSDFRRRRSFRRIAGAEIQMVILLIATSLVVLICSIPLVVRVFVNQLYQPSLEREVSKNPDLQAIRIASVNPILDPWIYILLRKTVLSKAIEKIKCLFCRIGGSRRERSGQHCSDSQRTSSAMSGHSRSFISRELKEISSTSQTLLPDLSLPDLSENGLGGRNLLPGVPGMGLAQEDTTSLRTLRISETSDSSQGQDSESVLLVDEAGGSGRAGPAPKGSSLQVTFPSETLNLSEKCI
Experimental: as §1, §2, §3, §4

T1 sequence (P43116 whole entry): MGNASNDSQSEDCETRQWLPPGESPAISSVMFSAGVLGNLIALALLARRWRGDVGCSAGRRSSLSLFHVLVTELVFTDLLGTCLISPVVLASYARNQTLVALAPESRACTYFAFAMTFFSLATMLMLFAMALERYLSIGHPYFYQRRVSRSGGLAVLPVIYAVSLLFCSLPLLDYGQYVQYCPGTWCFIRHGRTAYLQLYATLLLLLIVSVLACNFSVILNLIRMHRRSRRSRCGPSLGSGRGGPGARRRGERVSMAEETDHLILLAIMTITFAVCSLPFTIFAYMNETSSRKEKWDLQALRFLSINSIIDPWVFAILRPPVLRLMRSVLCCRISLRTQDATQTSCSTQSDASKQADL

| Compound | Ki (human EP2 receptor) [M] | Ki (human EP4 receptor) [M] |
| --- | --- | --- |
| O=C(O)C=Cc1cccc(NC(=O)c2ccc(Oc3ccccc3)o2)c1 [Compound 5, 3-{3-[(5-Phenoxy-furan-2-carbonyl)-amino]-phenyl}-acrylic acid] | < 1e-07 | > 1e-06 |
| O=C(O)C=Cc1cccc(NC(=O)c2ccc(C(=O)c3ccccc3)o2)c1 [Compound 11, 3-{3-[(5-Benzoyl-furan-2-carbonyl)-amino]-phenyl}-acrylic acid] | < 1e-07 | > 1e-06 |
| O=C(O)C=Cc1ccc(Cl)c(NC(=O)c2cc(-c3ccccc3)ccc2F)c1 [Compound 52, 3-{4-Chloro-3-[(4-fluoro-biphenyl-3-carbonyl)-amino]-phenyl}-acrylic acid] | < 1e-08 | > 1e-07 |
| O=C(O)C=Cc1cccc(Sc2cccc(-c3ccccc3)n2)c1 [Compound 16, 3-[3-(6-Phenyl-pyridin-2-ylsulfanyl)-phenyl]-acrylic acid] | < 1e-06 | > 1e-06 |
| O=C(O)C=Cc1cccc(NC(=O)c2ccc3oc4ccccc4c3c2)c1 [Compound 20, 3-{3-[(Dibenzofuran-2-carbonyl)-amino]-phenyl}-acrylic acid] | < 1e-07 | > 1e-06 |

More lines, now with the values ahead:

| Ki (human EP2 receptor) [M] | Ki (human EP4 receptor) [M] | Compound |
| --- | --- | --- |
| < 1e-06 | > 1e-06 | N=C(Nc1cccc(C=CC(=O)O)c1)c1cc(-c2ccccc2)ccc1F [Compound 58, 3-{3-[(4-Fluoro-biphenyl-3-carboximidoyl)-amino]-phenyl}-acrylic acid] |
| < 1e-06 | > 1e-06 | O=C(O)C=Cc1cccc(CC(O)c2ccc(-c3ccccc3)o2)c1 (stereo not shown) [Compound 28, 3-{3-[2-Hydroxy-2-(5-phenyl-furan-2-yl)-ethyl]-phenyl}-acrylic acid] |
| < 1e-07 | > 1e-06 | O=C(O)C=Cc1ccc(F)c(NC(=O)c2ccc(-c3ccccc3)o2)c1 [Compound 45, 3-{4-Fluoro-3-[(5-phenyl-furan-2-carbonyl)-amino]-phenyl}-acrylic acid] |
| < 1e-06 | > 1e-06 | O=C(O)C=Cc1cccc(-c2nc3cc(-c4ccccc4)ccc3o2)c1 [Compound 34, 3-[3-(5-Phenyl-benzoxazol-2-yl)-phenyl]-acrylic acid] |
| < 1e-06 | > 1e-06 | O=C(O)C=Cc1cccc(NC(=O)c2ccc(-c3ccccc3)o2)n1 [Compound 40, 3-{6-[(5-Phenyl-furan-2-carbonyl)-amino]-pyridin-2-yl}-acrylic acid] |
| < 1e-06 | > 1e-06 | O=C(O)C=Cc1cccc(C=Cc2ccc(-c3ccccc3)o2)c1 [Compound 29, 3-{3-[2-(5-Phenyl-furan-2-yl)-vinyl]-phenyl}-acrylic acid] |
